These results are taken from EP3400955B1, “USE OF CRYPTONIN FOR TREATMENT OF CANCER” (Istanbul Universitesi Rektorlugu, priority 2016, dated 2025).

Like-named read-outs stand apart in the source and are kept apart here. Ends that are not written are not given here.

The subject of one data set is erythrocytes. The settings on record: dose of 25-200 µg/ml; Park et al. (2007); cited from earlier work.
The subject of data set [1] is MCF-7 cells. The settings on record: 24 hours, positive control = 100%. The protocol:
(§1) The lactate dehydrogenase (LDH) release assay is based on the measurement of a cytoplasmic enzyme, lactate dehydrogenase, activity released from damaged cells (Lobner, 2000) and is used for the assessment of cellular cytotoxicity. The cytotoxic effect of cryptonin on MCF-7 and MDA-MB 231 breast cancer cell lines was determined by measuring the activity of lactate dehydrogenase (LDH) enzyme released from damaged cells and a Cytotoxicity Detection Kit, LDH (Roche Molecular Diagnostics, Germany) was used for this purpose.
(§2) In LDH test, a negative control, a control group for spontaneous LDH release from the cells, and a positive control group for maximum LDH release were studied, as well as experimental groups to which peptide was administered. […] For this purpose, doses of 10, 25, 50 and 100 µg/ml were administered for MCF-7 cells and doses of 7.5, 10, 25 and 50 µg/ml were administered for MDA-MB 231 cells, for 24 hours. Cells were grown in the flasks of 75 cm, then removed with trypsin-EDTA and centrifuged. Cells were suspended in medium at 5000 cells per 100 µl, and 100 µl of cell suspension was transferred to 96-well plates. All control groups and experimental groups were studied with 3 wells and the experiment was repeated 3 times. After a 24-hour incubation, the media of the control groups were refreshed. The medium of the experimental groups was replaced with a medium containing different concentrations of peptide. The lactate dehydrogenase enzyme activity released from the cells after the cells were incubated with cryptonin for 24 hours was determined following the manufacturer's instructions. 5 µl of lysis solution (2% Triton-X-100) was added to the wells of the positive control group and the plate was incubated for 15 minutes at 37°C. To measure LDH activity, 100 µl of the freshly prepared reaction mixture containing catalyst (Diaphorase/NAD^+ mixture) and dye solution (iodotetrazolium chloride (INT) and sodium lactate) was added to each well. After 30 minutes of incubation in the dark at room temperature, the reaction was stopped by the addition of 50 µL of stop solution (1N HCl) to each well. The plates were shaken for 10 seconds on an orbital shaker and the spectrophotometric absorbance was measured at a test wavelength of 490 nm and a reference wavelength of 690 nm. The results were determined as % cytotoxicity. The mean absorbance values of the negative control were subtracted from the control and experimental groups, the positive control group was considered to be 100% cytotoxic and the cytotoxicities were calculated by comparing the control and experimental groups with positive control group using the following formula: [formula]

Data set [2] relates to MDA-MB 231 cells. The note with it: 24 hours, positive control = 100%. The method, then: as §1, §2
Data set [3] relates to MCF-7 cells. Kind of data set: Type of cell death by acridine orange/ethidium bromide double staining. Format: cell-based. The settings on record: 24 hours, mean +/- Standard Error. The protocol:
(§3) Cells were stained with acridine orange/ethidium bromide double staining method to morphologically analyze whether cryptonin-induced cell death occurs by a necrotic pathway or by an apoptotic pathway. For this purpose, breast cancer cells were plated in a 24-well plate, with 10,000 cells being present in each well and incubated for 24 hours at the above-mentioned different concentrations of antimicrobial peptides. After incubation, a mixture of acridine orange (Sigma) (100 µg/ml) /ethidium bromide stain (Sigma) (100 µg/ml) prepared in PBS was applied to the cells and the cells were visualized using a FITC/CY3 filter on a fluorescent microscope (Nikon DS5MCU2). 200 cells from each group were counted according to the staining pattern. Cells were grouped as viable, apoptotic and necrotic according to the staining pattern of their nuclei (Spector et al., 1998). Viable cells were distinguished as having green chromatin nuclei in an organized structure, apoptotic cells were distinguished as having green or orange fragmented nuclei, and necrotic cells were distinguished as normal colored but having orange nuclei like normal cells (Ribble et al., 2005).

Data set [4] deals with MDA-MB 231 cells. The description is as above. Format: cell-based. The settings on record: 24 hours, mean +/- Standard Error. The protocol: as §3
The test system of data set [5] is 3T3 Fibroblast Cell Membrane. The settings on record: 100 µg/ml, 24-hour incubation.
Description: MCF-7 and MDA-MB 231 and 3T3 fibroblast cells were plated into sterile round slides with a diameter of 12 mm in the wells in 24-well plate such that each well contained 50,000 cells. The following day, the medium was replaced with a medium containing cryptonin at a concentration of 100 µg/ml. After 24-hour incubation, the cells were washed 2 times with 0.1 M sodium cacodylate buffer (pH 7.2) and fixed with 2.5% glutaraldehyde prepared in 0.1 M sodium cacodylate buffer for 2 hours. After the first fixation, the cells were washed again with 0.1 M sodium cacodylate buffer and fixed with 1% osmium tetroxide prepared in 0.2 M sodium cacodylate buffer for 30 minutes for the second time. After the cells were washed with 0.2 M sodium cacodylate buffer, they were taken in an increasing series of ethyl alcohol. Dehydration was performed by incubation 3 times with 30% alcohol for 5 minutes, 3 times with 50% alcohol for 5 minutes, 2 times with 70% alcohol for 10 minutes, 2 times with 85% alcohol for 15 minutes, 2 times with 95% alcohol for 15 minutes and 3 times with 100% alcohol for 10 minutes. After the slides were air-dried, they were coated with golden by BioRad SC 502 coating device. The cells were examined with Jeol Neoscope JCM-500 scanning electron microscope and their photographs were taken (Vitale et al., 1998; Hilchie et al., 2011).

Description for 3T3 fibroblast cells: Yellow MTT is reduced to purple formazan crystals by the activity of mitochondrial dehydrogenases in viable cells. The intensity of the resulting purple color is directly proportional to the number of viable cells. MTT test was performed in 96-well plates. To this end, the cells grown in the flasks were removed by trypsin-EDTA, then collected by centrifugation and the cell pellet was suspended in the medium such that 5000 cells would be present per 100 µl. 5000 cells were plated in each well of the plate. In the following day, the medium in the wells was removed, fresh medium was added to the control group, and a medium containing anti-microbial peptide was added to the experimental groups at 8 different concentrations. This medium contained 10% serum.
Cells were exposed to different concentrations of antimicrobial peptide for 24 hours. At the end of this period, 30 µl of a solution of 3-(4,5-dimethylthiazol-2-yl)-2,5-diphenyltetrazolium bromide (MTT) was added to each well in the plate. […] The optical density was measured at a test wavelength of 570 nm and a reference wavelength of 630 nm. […] The mean absorbance values obtained from the control group were accepted as 100% cell viability and the values obtained from the wells treated with antimicrobial peptide were assessed versus control group.

Take GLLNGLALRLGKRALKKIIKRLCR [cryptonin]: the hemolysis of erythrocytes in the data set with erythrocytes is 5%. The “LDH release (% cytotoxicity)” value came out at 36.03±2.1% with MCF-7 cells [1] (25 µg/ml); 84.1±1.7% in the data set with MCF-7 cells [1] (50 ug/ml); 84.66±1.6% in the data set with MCF-7 cells [1] (100 µg/ml); 7.09±0.7% in the data set on MDA-MB 231 cells [2] (7.5 µg/ml); 8.46±0.9% with MDA-MB 231 cells [2] (10 µg/ml); 24.24±2.1% in the data set with MDA-MB 231 cells [2] (25 µg/ml). In the data set with MDA-MB 231 cells [2] (50 µg/ml), the “LDH release (% cytotoxicity)” value stood at 45.90±1%. Further, the Viable cell % in the data set with MCF-7 cells [3] (10 µg/ml) is on record as 98.89±5%; with MCF-7 cells [3] (25 µg/ml), 85.3±4.8%; in the data set on MCF-7 cells [3] (50 µg/ml), 1.07±1.1%; with MCF-7 cells [3] (100 µg/ml), 0.06±0.2%; in the data set on MCF-7 cells [3] (200 µg/ml), 2.14±1.8%; in the data set on MDA-MB 231 cells [4] (10 µg/ml), 95.88±1.6%. Besides, the Viable cell % came out at 95.53±2.9% in the data set with MDA-MB 231 cells [4] (25 µg/ml), 45.13±4.1% with MDA-MB 231 cells [4] (50 µg/ml), 0.04±0.1% in the data set with MDA-MB 231 cells [4] (100 µg/ml) and 0±0% with MDA-MB 231 cells [4] (200 µg/ml). The “effect on cell membrane (scanning electron microscope)” value in data set [5] was “disrupted the cell membrane integrity by forming pores, slits and blebs”. In the data set on 3T3 fibroblast cells (dose range 25-200 µg/ml), the fibroblast cell viability entry is recorded as “significantly reduced”. Further, in the data set on 3T3 fibroblast cells (less at 10 µg/ml, more at 25, 50, 100 and 200 µg/ml, 24 hours, cells representing normal cells), the “number of viable cells” value was “reduced the number of viable cells”.
